Reference: ChEMBL document CHEMBL5303304, “EUbOPEN Chemogenomics Library - IncuCyte” (2023)

Assays:
Type in all cases: toxicity, cell-based
[1] = test system: HEK-293T; assay: Incucyte cell viability with HEK293T; details: human, 10 µM, compound concentration 10 uM
[2] = test system: Fibroblast; assay: Incucyte cell viability with human fibroblast; details: 10 µM, compound concentration 10 uM
[3] = test system: U2OS; assay: Incucyte cell viability with U2OS; details: human, 10 µM, compound concentration 10 uM
Note: unitless GR value; below 1 slowed growth and below 0 cell loss.

Structure (SMILES) | Growth Rate ([1]; 6 h, replicate number 1) | Growth Rate ([1]; 6 h, replicate number 2) | Growth Rate ([1]; 12 h, replicate number 1) | Growth Rate ([1]; 12 h, replicate number 2) | Growth Rate ([1]; 18 h, replicate number 1) | Growth Rate ([1]; 18 h, replicate number 2) | Growth Rate ([1]; 24 h, replicate number 1) | Growth Rate ([1]; 24 h, replicate number 2) | Growth Rate ([2]; 0 h, replicate number 2) | Growth Rate ([2]; 6 h, replicate number 2) | Growth Rate ([2]; 24 h, replicate number 2) | Growth Rate ([2]; 0 h, replicate number 1) | Growth Rate ([2]; 6 h, replicate number 1) | Growth Rate ([2]; 12 h, replicate number 2) | Growth Rate ([2]; 18 h, replicate number 2) | Growth Rate ([1]; 0 h, replicate number 1) | Growth Rate ([2]; 24 h, replicate number 1) | Growth Rate ([1]; 0 h, replicate number 2) | Growth Rate ([2]; 18 h, replicate number 1) | further results
CNC(=O)COc1cc2cc(Nc3nc(N4CCC(C(=O)N(C)C)CC4)ncc3Cl)cc(OC)c2n(C)c1=O | 0.46 | 0.13 | 0.74 | 0.41 | 0.57 | 0.58 | 0.67 | 0.66 | 0 | 0.46 | 0.87 |  |  |  |  |  |  |  |  | Growth Rate ([3]; 0 h, replicate number 2): 0.59; Growth Rate ([3]; 6 h, replicate number 1): 0.94; Growth Rate ([3]; 12 h, replicate number 2): 0.77; Growth Rate ([3]; 18 h, replicate number 2): 0.87; Growth Rate ([3]; 24 h, replicate number 1): 0.92; Growth Rate ([3]; 24 h, replicate number 2): 0.91
CC(C)CC(=O)Nc1cncc(-c2ccc3[nH]nc(-c4nc5c(-c6cccc(F)c6)cncc5[nH]4)c3c2)c1 [LORECIVIVINT] | -0.99 | -0.98 | -0.89 | -0.78 | -0.67 | -0.58 | -0.41 | -0.44 | -0.25 | -0.98 | -0.13 | -0.18 | -1 | -0.68 | -0.37 |  |  |  |  | Growth Rate ([3]; 0 h, replicate number 2): -0.42; Growth Rate ([3]; 6 h, replicate number 1): -0.98; Growth Rate ([3]; 6 h, replicate number 2): -0.82; Growth Rate ([3]; 12 h, replicate number 1): -0.71; Growth Rate ([3]; 12 h, replicate number 2): -0.62; Growth Rate ([3]; 18 h, replicate number 1): -0.52; Growth Rate ([3]; 18 h, replicate number 2): -0.47; Growth Rate ([3]; 24 h, replicate number 1): -0.44; Growth Rate ([3]; 24 h, replicate number 2): -0.42
Cc1nn(-c2nc3ccc(Cl)c(Cl)c3[nH]2)c(O)c1C1OC(=O)c2ccccc21 (stereo not drawn) |  |  |  |  |  |  |  |  | -0.86 |  |  | -1 | 0.95 |  |  | 0.09 | 0.83 |  |  | Growth Rate ([3]; 0 h, replicate number 1): 0.81; Growth Rate ([3]; 6 h, replicate number 1): 0.82
c1ccc(C(OC2CCN(CCCc3nnn[nH]3)CC2)c2ccccc2)cc1 | 0.35 | 0.46 | 0.7 | 0.67 | 0.57 | 0.85 | 0.65 | 0.75 |  | -0.26 |  |  |  |  | 0.75 |  |  |  |  | 
CCN(CC)C(=O)C1CN2CCc3cc(OC)c(OC)cc3C2CC1OC(C)=O (stereo not drawn) [BENZQUINAMIDE] |  | 0.7 |  | 0.59 |  | 0.61 |  | 0.87 |  | -0.43 | 0.97 |  |  | 1 | 0.6 | 0.39 |  |  |  | 
N=C(N)Nc1cc(C2CCNCC2)cc(C(F)(F)F)c1.O=C(O)C(F)(F)F.O=C(O)C(F)(F)F | 0.69 |  | 0.91 |  | 0.98 |  | 0.96 |  | -1 |  |  |  |  |  |  | 0.85 | 0.99 | -0.14 |  | 
C[C@@H](COCCC(=O)N1CCN(c2ncc(C(F)(F)F)cn2)CC1)Nc1cn[nH]c(=O)c1C(F)(F)F [ATAMPARIB] |  | 0.59 |  | 0.8 |  | 0.9 |  | 0.75 |  | 0.74 | 0.15 |  | 0.88 | 0.15 | 0.13 | 0.95 | 0.39 | 0.81 | 0.22 | Growth Rate ([2]; 12 h, replicate number 1): 0.3
Cc1cccc(-c2[nH]c(CNc3ccccc3F)nc2-c2ccc3ncnn3c2)n1 [VACTOSERTIB] | 0.95 | 0.58 |  |  |  |  |  |  | -0.26 |  |  |  |  |  |  | 0.84 |  | -0.43 | 0.97 | 
COc1cc(C(=O)NCCOCCOCCOCCC(=O)Nc2cccc3c2C(=O)N(C2CCC(=O)NC2=O)C3=O)ccc1Nc1ncc(C(F)(F)F)c(Oc2cccc3c2C(=O)CC3)n1 (stereo not drawn) | 0.89 |  | 0.57 |  | 0.71 | 0.69 | 0.61 | 0.74 | 0.45 |  |  |  |  | 0.65 |  | -0.87 |  | -0.99 |  | 
COc1cc2nc([C@@H]3CCCS(=O)(=O)C3)n(C)c2cc1NC(=O)c1cccc(C(C)(F)F)n1 |  |  |  |  |  |  |  |  | -0.81 |  |  |  |  |  |  | -0.79 |  | -0.88 |  | 
CN(C)C(=O)Cn1cc(-c2nc(C3(c4ccc(-c5cnc(N)nc5)cc4)CC3)no2)cn1 [BI 0153] | 0.25 |  |  |  | 0.95 |  | 0.92 |  | -0.89 | -0.35 | 0.96 | -1 | 0.57 | 0.4 | 0.6 | 0.71 | 0.73 |  | 0.91 | 
Cc1ccc(NC(=O)c2ccc(CN3CC[C@H](N(C)C)C3)c(C(F)(F)F)c2)cc1Nc1nccc(-c2cncnc2)n1 [BAFETINIB] | 0.57 |  | 0.67 | 0.68 | 0.96 | 0.99 | 0.97 |  | 0.2 | -0.55 | 0.54 | -1 | -0.23 | 0.02 | 0.39 |  | 0.14 |  | 0.01 | Growth Rate ([2]; 12 h, replicate number 1): 0.05
CNc1ncc2cc(-c3ccc(-c4ncccc4F)cc3Cl)c(=O)n(C[C@H]3OC[C@H](N)CO3)c2n1 |  |  |  |  |  |  |  |  |  | -0.26 | 0.66 |  | 0.02 | -0.06 | 0.35 | -0.97 | 0.8 |  | 0.78 | Growth Rate ([2]; 12 h, replicate number 1): 0.37
CN[C@@H](C)C(=O)N[C@H](C(=O)N1CCC[C@H]1C(=O)Nc1sc(-c2ncco2)nc1-c1ccccc1)C1CCCCC1 [GDC-0917] | 0.6 | 0.98 | 0.93 |  | 0.86 |  | 0.92 | 0.99 |  | 0.6 |  | -1 |  |  |  | 0.71 |  |  |  | 
N=C(N)NCCC[C@H](NC(=O)CC1(CC(=O)N2CCN(C(c3ccccc3)c3ccccc3)CC2)CCCC1)C(=O)NCc1ccccc1.O=C(O)C(F)(F)F.O=C(O)C(F)(F)F | 0.7 | 0.95 | 0.89 |  |  |  |  |  | -0.98 |  | 0.64 |  | 0.88 |  | 0.92 | 0.71 | 0.8 |  | 0.47 | Growth Rate ([2]; 12 h, replicate number 1): 0.74
Cc1ncsc1-c1ccc(CNC(=O)[C@@H]2C[C@@H](O)CN2C(=O)[C@@H](NC(=O)C2(F)CC2)C(C)(C)C)c(OCCOc2ccc(CN3CCN(c4cc(-c5ccccc5O)nnc4N)CC3)cc2)c1 |  |  |  |  |  |  |  |  | -1 |  |  |  |  |  |  | -1 |  |  |  | 
